The values below come from patent US9090617B1, “Agonists of Src homology-2 containing protein tyrosine phosphatase-1 and treatment methods using the same” (National Taiwan University, priority 2011, dated 2015).

The term IC50 denotes the concentration that inhibits the measured activity by half. High values mean weaker potency, low ones greater potency.

In one data set the test system is PLC5 cells. The data set can be described thus: MTT assay for cell growth inhibition in PLC5 cells. The data set is classed as cell-based.
Details: not given
As for the experimental part: These compounds were analyzed by MTT assay for cell growth inhibition in the PLC5 cells.
Next, we changed the pyridine to a quinoline ring and amide linker to generate compounds 12-25. These compounds were also analyzed by MTT assay for cell growth inhibition in the PLC5 cells.
Background: Formazan colour is commonly taken as a measure of viable cells.
With `O=[N+]([O-])c1cccc2c(Oc3ccc(NS(=O)(=O)c4ccc(C(F)(F)F)cc4Br)cc3)ccnc12` [Compound 15, 2-Bromo-N-(4-(8-nitroquinolin-4-yloxy)phenyl)-4-(trifluoromethyl)benzenesulfonamide], the concentration for half-maximal inhibition (IC50) was > 40 µM.
Same read-out and setting: under `O=C(Nc1ccc(Oc2ccnc3ccccc23)cc1)c1cc(C(F)(F)F)ccc1F` [Compound 18, 2-Fluoro-N-(4-(quinolin-4-yloxy)phenyl)-5-(trifluoromethyl)benzamide] stands 21.1 µM; under `O=C(Nc1ccc(Oc2ccnc3c([N+](=O)[O-])cccc23)cc1)c1cc(C(F)(F)F)ccc1F` [Compound 19, 2-Fluoro-N-(4-(8-nitroquinolin-4-yloxy)phenyl)-5-(trifluoromethyl)benzamide], > 40 µM.
Same read-out and setting: under `CNC(=O)c1cc(Oc2ccc(NC(=O)c3ccc(C(F)(F)F)cc3)cc2)ccn1` [Compound 11, N-Methyl-4-(4-(4-(trifluoromethyl)benzamido)phenoxy)picolinamide] stands > 40 µM; under `CNC(=O)c1cc(Oc2ccc(NC(=O)c3cc(C(F)(F)F)cc(C(F)(F)F)c3)cc2)ccn1` [Compound 9, 4-(4-(3,5-Bis(trifluoromethyl)benzamido)phenoxy)-N-methylpicolinamide], > 40 µM.
On the same count and under the same terms, under `CC(=O)Nc1cccc2c(Oc3ccc(NC(=O)c4cc(C(F)(F)F)cc(C(F)(F)F)c4)cc3C)ccnc12` [Compound 22, N-(4-(8-Acetamidoquinolin-4-yloxy)-3-methylphenyl)-3,5-bis(trifluoromethyl)benzamide] stands > 40 µM.
In turn, `O=C(Nc1ccc(Oc2ccnc3ccccc23)cc1)c1cc(C(F)(F)F)cc(C(F)(F)F)c1` [Compound 16, N-(4-(Quinolin-4-yloxy)phenyl)-3,5-bis(trifluoromethyl)benzamide] yielded an IC50 of 16 µM.
On the same count and under the same terms, under `CNC(=O)c1cc(Oc2ccc(NS(=O)(=O)c3ccccc3[N+](=O)[O-])cc2)ccn1` [Compound 8, N-Methyl-4-(4-(2-nitrophenylsulfonamido)phenoxy)picolinamide] stands > 40 µM.
On to `O=[N+]([O-])c1cc(C(F)(F)F)ccc1S(=O)(=O)Nc1ccc(Oc2ccnc3c([N+](=O)[O-])cccc23)cc1` [Compound 13, 2-Nitro-N-(4-(8-nitroquinolin-4-yloxy)phenyl)-4-(trifluoromethyl)benzenesulfonamide], for which the IC50 is > 40 µM.
Still for that read-out and setting: then `CNC(=O)c1cc(Oc2ccc(NS(=O)(=O)c3ccc(C(F)(F)F)cc3Br)cc2)ccn1` [Compound 7, 4-(4-(2-Bromo-4-(trifluoromethyl)phenylsulfonamido)phenoxy)-N-methylpicolinamide], with > 40 µM; and `O=C(Nc1ccc(Oc2ccnc3c([N+](=O)[O-])cccc23)cc1)c1cc(C(F)(F)F)cc(C(F)(F)F)c1` [Compound 17, N-(4-(8-Nitroquinolin-4-yloxy)phenyl)-3,5-bis(trifluoromethyl)benzamide], with > 40 µM; and `CNC(=O)c1cc(Oc2ccc(NS(=O)(=O)c3ccc(F)cc3)cc2)ccn1` [Compound 4, 4-(4-(4-Fluorophenylsulfonamido)phenoxy)-N-methylpicolinamide], with > 40 µM.
Same read-out and setting: under `O=C(Nc1cccc(Oc2ccnc3c([N+](=O)[O-])cccc23)c1)c1cc(C(F)(F)F)cc(C(F)(F)F)c1` [Compound 23, N-(3-(8-Nitroquinolin-4-yloxy)phenyl)-3,5-bis(trifluoromethyl)benzamide] stands > 40 µM; under `O=S(=O)(Nc1ccc(Oc2ccnc3ccccc23)cc1)c1ccc(C(F)(F)F)cc1Br` [Compound 14, 2-Bromo-N-(4-(quinolin-4-yloxy)phenyl)-4-(trifluoromethyl)benzenesulfonamide], > 40 µM.
Same read-out and setting: under `CNC(=O)c1cc(Oc2ccc(NS(=O)(=O)c3ccc(C(C)(C)C)cc3)cc2)ccn1` [Compound 5, 4-(4-(4-tert-Butylphenylsulfonamido)phenoxy)-N-methylpicolinamide] stands > 40 µM; under `CC(=O)Nc1cccc2c(Oc3cccc(NC(=O)c4cc(C(F)(F)F)cc(C(F)(F)F)c4)c3)ccnc12` [Compound 25, N-(3-(8-Acetamidoquinolin-4-yloxy)phenyl)-3,5-bis(trifluoromethyl)benzamide], 10.8 µM.
Take `Cc1cc(NC(=O)c2cc(C(F)(F)F)cc(C(F)(F)F)c2)ccc1Oc1ccnc2c(N)cccc12` [Compound 21, N-(4-(8-Aminoquinolin-4-yloxy)-3-methylphenyl)-3,5-bis(trifluoromethyl)benzamide]: the half-maximal inhibitory concentration (IC50) stood at 25.4 µM.
Same read-out and setting: then `CNC(=O)c1cc(Oc2ccc(NS(=O)(=O)c3ccc([N+](=O)[O-])cc3)cc2)ccn1` [Compound 3, N-Methyl-4-(4-(4-nitrophenylsulfonamido)phenoxy)picolinamide], with > 40 µM; and `O=[N+]([O-])c1cc(C(F)(F)F)ccc1S(=O)(=O)Nc1ccc(Oc2ccnc3ccccc23)cc1` [Compound 12, 2-Nitro-N-(4-(quinolin-4-yloxy)phenyl)-4-(trifluoromethyl)benzenesulfonamide], with > 40 µM.
The same measure, in the same setting: under `Nc1cccc2c(Oc3cccc(NC(=O)c4cc(C(F)(F)F)cc(C(F)(F)F)c4)c3)ccnc12` [Compound 24, N-(3-(8-Aminoquinolin-4-yloxy)phenyl)-3,5-bis(trifluoromethyl)benzamide] stands 19 µM; under `Cc1cc(NC(=O)c2cc(C(F)(F)F)cc(C(F)(F)F)c2)ccc1Oc1ccnc2c([N+](=O)[O-])cccc12` [Compound 20, N-(3-Methyl-4-(8-nitroquinolin-4-yloxy)phenyl)-3,5-bis(trifluoromethyl)benzamide], > 40 µM.
Still for that read-out and setting: under `CNC(=O)c1cc(Oc2ccc(NC(=O)c3cc(F)ccc3C(F)(F)F)cc2)ccn1` [Compound 10, 4-(4-(5-Fluoro-2-(trifluoromethyl)benzamido)phenoxy)-N-methylpicolinamide] stands > 40 µM; under `CNC(=O)c1cc(Oc2ccc(NS(=O)(=O)c3ccc4ccccc4c3)cc2)ccn1` [Compound 6, N-Methyl-4-(4-(naphthalene-2-sulfonamido)phenoxy)picolinamide], > 40 µM.
For `CNC(=O)c1cc(Oc2ccc(NS(=O)(=O)c3ccccc3)cc2)ccn1` [Compound 2, N-Methyl-4-(4-(phenylsulfonamido)phenoxy)picolinamide], the half-inhibitory concentration (IC50) is > 40 µM.

A further data set relates to p-STAT3, cyclin D1, survivin, Mc1-1. In words: Western blot of STAT3-related proteins in HCC cells. The data set is classed as cell-based. Conditions: PLC5 cells, 5 and 10 μM, 24 h. As for the experimental part:
Cells were treated with various compounds at 5 and 10 μM for 24 h. Cell lysates were analyzed by western blot.
HCC cells treated with SC-43 (10 μM for 24 h) were collected with RIPA lysis buffer. Antibodies for immunoblotting such as cyclin D1 was purchased from Santa Cruz Biotechnology. Other antibodies such as survivin, phospho-STAT3 (Tyr705), STAT3, Mc1-1, SOCS1, and SOCS3 were from Cell Signaling.
In general terms: A western blot detects proteins with antibodies after separation by electrophoresis.
With `O=[N+]([O-])c1cc(C(F)(F)F)ccc1S(=O)(=O)Nc1ccc(Oc2ccnc3ccccc23)cc1` [Compound 12, 2-Nitro-N-(4-(quinolin-4-yloxy)phenyl)-4-(trifluoromethyl)benzenesulfonamide], the “cyclin D1 and survivin level” value is listed as “had no effect on either protein”.

A further data set deals with HCC cells. In words: cells.
Details: not given
An excerpt: Points, mean; bars, SD (n=6).
Points, mean; bars, SD ([…]). […] The N-SH2 domain is in orange, the C-SH2 domain is in marine, the PTP domain is in hot pink, and the linkers between them are in gray. […] ELISA, enzyme-linked immunosorbent assay.
As to `N#Cc1ccc(Oc2cc(NC(=O)Nc3ccc(Cl)c(C(F)(F)F)c3)ccc2F)cc1` [SC-111, 1-(4-chloro-3-(trifluoromethyl)phenyl)-3-(3-(4-cyanophenoxy)-4-fluorophenyl)urea], the “viability of HCC cells / cytotoxicity” value is “exhibits antitumor effect in vitro”.

A further data set deals with HCC cells. In words: Apoptosis analysis by flow cytometry (sub-G1). The data set is classed as cell-based. The following applies: HCC cells, 24 h. How it is done:
Apoptotic cells were measured by flow cytometry (sub-G1). After treatment with various compounds, cells were trypsinized, collected by centrifugation and resuspended in PBS. After centrifugation, the cells were washed in PBS and resuspended in […] (PI) staining solution. Specimens were incubated in the dark for 30 min at 37° C. and then analyzed with an EPICS Profile II flow cytometer (Coulter Corp., Hialeah, Fla.). All experiments were performed in triplicate
Collected cells were fixed in 75% Ethanol and stained with 20 ug/ml Propidium Iodide (PI). Sub-G1 analysis was performed by flow-cytometry. […] Points, mean; bars, SD (n=6).
On the technique in general: Flow cytometry measures light scatter and fluorescence of single cells or particles in a stream.
For the compound `O=S(=O)(Nc1cccc(Oc2ccn3cc(-c4ccccc4)nc3c2)c1)c1cccc(C(F)(F)F)c1` [SC-37, N-(3-(2-phenylimidazo[1,2-a]pyridin-7-yloxy)phenyl)-3-(trifluoromethyl)benzenesulfonamide], the “apoptosis (sub-G1)” value is listed as “has no activity in inducing cancer cell apoptosis”.
For `N#Cc1ccc(Oc2cccc(NC(=O)C3(C(=O)Nc4cccc(Oc5ccc(C#N)cc5)c4)CC3)c2)cc1` [SC-67, N,N′-bis(3-(4-cyanophenoxyl)phenyl)cyclopropane-1,1-dicarboxamide], the “apoptosis (sub-G1)” value is on record as “has no activity in inducing cancer cells (PLC5) apoptosis”.
